Source: ChEMBL document CHEMBL1201862, “PubChem BioAssay data set” (2004)
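Cultured in 96-well plates, cells were exposed to test compound for 48 hours across five concentrations. The concentration for 50% growth inhibition is given as GI50.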 Active and inactive are the calls of the source. No stated cut-off is given here; in the data, active = GI50 up to about 1.1 µM and inactive = higher.

Assays:
Experiment in all cases: inhibition of tumour cell growth, NCI panel, 48 h
[1] = system: 786-0
[2] = system: A549
[3] = system: ACHN
[4] = system: CAKI-1
[5] = system: CCRF-CEM
[6] = system: COLO 205
[7] = system: DLD-1
[8] = system: DMS-114
[9] = system: DMS-273
[10] = system: HCT-116
[11] = system: HCT-15
[12] = system: HL-60
[13] = system: HOP-18
[14] = system: HOP-62
[15] = system: HOP-92
[16] = system: HT-29
[17] = system: IGROV-1
[18] = system: K562
[19] = system: KM-20L2
[20] = system: KM12
[21] = system: LOX IMVI
[22] = system: LXFL 529
[23] = system: M14
[24] = system: M19-MEL
[25] = system: MOLT-4
[26] = system: Malme-3M
[27] = system: NCI-H226
[28] = system: NCI-H23
[29] = system: NCI-H460
[30] = system: NCI-H522
[31] = system: OVCAR-3
[32] = system: OVCAR-4
[33] = system: OVCAR-5
[34] = system: OVCAR-8
[35] = system: RPMI-8226
[36] = system: RXF 393
[37] = system: SF-268
[38] = system: SF-295
[39] = system: SF-539
[40] = system: SK-MEL-28
[41] = system: SK-MEL-2
[42] = system: SK-MEL-5
[43] = system: SK-OV-3
[44] = system: SN12C
[45] = system: SNB-19
[46] = system: SNB-75
[47] = system: SNB-78
[48] = system: SR
[49] = system: SW-620
[50] = system: TK-10
[51] = system: U-251
[52] = system: UACC-257
[53] = system: UACC-62
[54] = system: UO-31
[55] = system: XF498
[56] = system: A498
[57] = system: EKVX
[58] = system: HCC 2998

## O=[N+]([O-])c1ccc(N2C[N+](c3ccccc3)=NC(c3ccccc3)=N2)cc1
[1]
  GI50: 59.7 µM (inactive)
[2]
  GI50: 34.6 µM (inactive)
[3]
  GI50: 19.3 µM (inactive)
[4]
  GI50: 63 µM (inactive)
[5]
  GI50: 45.1 µM (inactive)
[6]
  GI50: 50.5 µM (inactive)
[7]
  GI50: 32.2 µM (inactive)
[8]
  GI50: 22.5 µM (inactive)
[9]
  GI50: 45.1 µM (inactive)
[10]
  GI50: 23.3 µM (inactive)
[11]
  GI50: 28.6 µM
[12]
  GI50: 38.2 µM (inactive)
[13]
  GI50: 21.1 µM (inactive)
[14]
  GI50: 17.8 µM (inactive)
[15]
  GI50: 35.7 µM (inactive)
[16]
  GI50: 43.9 µM (inactive)
[17]
  GI50: 41.2 µM (inactive)
[18]
  GI50: 27 µM (inactive)
[19]
  GI50: 31.9 µM (inactive)
[20]
  GI50: 29.4 µM (inactive)
[21]
  GI50: 26.1 µM (inactive)
[22]
  GI50: 30.2 µM (inactive)
[23]
  GI50: 58.1 µM (inactive)
[24]
  GI50: 75.3 µM (inactive)
[25]
  GI50: 43.5 µM (inactive)
[26]
  GI50: 91.2 µM (inactive)
[27]
  GI50: > 100 µM (inactive)
[28]
  GI50: 34 µM (inactive)
[29]
  GI50: 39.4 µM (inactive)
[30]
  GI50: 25.6 µM (inactive)
[31]
  GI50: 32.2 µM (inactive)
[32]
  GI50: 44.5 µM (inactive)
[33]
  GI50: 73.1 µM (inactive)
[34]
  GI50: 43.9 µM (inactive)
[35]
  GI50: 39.3 µM (inactive)
[36]
  GI50: 54.5 µM (inactive)
[37]
  GI50: 29.4 µM (inactive)
[38]
  GI50: 35.6 µM (inactive)
[39]
  GI50: 72.3 µM (inactive)
[40]
  GI50: > 100 µM (inactive)
[41]
  GI50: 20.5 µM (inactive)
[42]
  GI50: 29 µM (inactive)
[43]
  GI50: 48.9 µM (inactive)
[44]
  GI50: 46.3 µM (inactive)
[45]
  GI50: 38.6 µM (inactive)
[46]
  GI50: 99.3 µM (inactive)
[47]
  GI50: > 100 µM (inactive)
[48]
  GI50: 37.8 µM (inactive)
[49]
  GI50: 68.4 µM (inactive)
[50]
  GI50: 40.7 µM (inactive)
[51]
  GI50: 32.2 µM (inactive)
[52]
  GI50: 38.5 µM (inactive)
[53]
  GI50: 26.2 µM (inactive)
[54]
  GI50: 17.3 µM (inactive)
[55]
  GI50: 21.4 µM (inactive)

## O=C(NC1C2CC3CC(C2)CC1C3)/C(Cl)=C1/Sc2ccccc2NC1=O (stereo not given)
[1]
  GI50: > 100 µM (inactive)
[56]
  GI50: > 100 µM (inactive)
[2]
  GI50: > 100 µM (inactive)
[3]
  GI50: > 95.9 µM (inactive)
[4]
  GI50: > 100 µM (inactive)
[5]
  GI50: 29.5 µM (inactive)
[6]
  GI50: > 100 µM (inactive)
[7]
  GI50: > 100 µM (inactive)
[8]
  GI50: > 65.5 µM (inactive)
[9]
  GI50: > 49 µM (inactive)
[57]
  GI50: > 100 µM (inactive)
[58]
  GI50: > 80 µM (inactive)
[10]
  GI50: > 83.6 µM (inactive)
[11]
  GI50: > 78.9 µM
[12]
  GI50: 62.2 µM (inactive)
[13]
  GI50: > 100 µM (inactive)
[14]
  GI50: > 100 µM (inactive)
[15]
  GI50: > 76.4 µM (inactive)
[16]
  GI50: > 100 µM (inactive)
[17]
  GI50: > 100 µM (inactive)
[18]
  GI50: 29.6 µM (inactive)
[19]
  GI50: > 100 µM (inactive)
[20]
  GI50: > 62.8 µM (inactive)
[21]
  GI50: 99.3 µM (inactive)
[22]
  GI50: 42.5 µM (inactive)
[23]
  GI50: > 100 µM (inactive)
[24]
  GI50: > 91.6 µM (inactive)
[25]
  GI50: 16.7 µM (inactive)
[26]
  GI50: > 100 µM (inactive)
[27]
  GI50: > 100 µM (inactive)
[28]
  GI50: > 100 µM (inactive)
[29]
  GI50: > 89.9 µM (inactive)
[30]
  GI50: > 100 µM (inactive)
[31]
  GI50: > 100 µM (inactive)
[32]
  GI50: > 100 µM (inactive)
[33]
  GI50: > 100 µM (inactive)
[34]
  GI50: > 100 µM (inactive)
[36]
  GI50: > 100 µM (inactive)
[37]
  GI50: > 100 µM (inactive)
[38]
  GI50: > 100 µM (inactive)
[39]
  GI50: > 100 µM (inactive)
[40]
  GI50: > 100 µM (inactive)
[42]
  GI50: > 100 µM (inactive)
[44]
  GI50: > 100 µM (inactive)
[45]
  GI50: > 100 µM (inactive)
[46]
  GI50: 97.9 µM (inactive)
[47]
  GI50: > 100 µM (inactive)
[48]
  GI50: 44.5 µM (inactive)
[49]
  GI50: > 100 µM (inactive)
[50]
  GI50: > 64.6 µM (inactive)
[51]
  GI50: > 100 µM (inactive)
[52]
  GI50: > 100 µM (inactive)
[53]
  GI50: > 89.5 µM (inactive)
[54]
  GI50: 58.9 µM (inactive)
[55]
  GI50: > 100 µM (inactive)
